Reference: patent US20080092250A1, “Activity-induced pain in animal model of osteoarthritis” (priority 2006, published 2008)
Where two headings read alike, the source gives them in different places.

Columns and labels:
[1] = system: osteoarthritic rats (unilateral i.a. MIA injection); assay: Hind limb grip force (activity-induced pain) 20 days after i.a. MIA injection; type: in vivo, rat
Experimental: For evaluating the effects of reference analgesic drugs experiments were performed 20 days after induction of OA. Assessment of hind limb grip force was used as a behavioral measure of activity induced pain in adult OA rodents. Measurements of peak hind limb grip force were conducted by recording the maximum compressive force exerted on the hind limb strain gauge setup, in a commercially available grip force measurement system (Columbus Instruments, Columbus, Ohio). A group of age matched naïve animals were added to each experiment and the data obtained from the different dose groups for the compound being tested were compared to the naïve group.
(§1) All experiments have been approved by the Institutional Animal Care and Use Committee (IACUC) at Abbott Laboratories and are in strict accordance with the ethical guidelines laid down by the International Association for the Study of Pain (IASP) (Zimmermann, 1983) for the care and use of laboratory animals. […] Following injection, the animals were allowed to recover from the effects of anesthesia (usually 5-10 mins) before returning to their home cages. […] Animals were euthanized by CO2 inhalation on day 20. The injected knee joints were dissected and immediately fixed in 10% phosphate buffered formalin. The samples were then decalcified in 5% formic acid for 3 days, routinely processed and then embedded in paraffin wax. Frontal histologic sections of the femorotibial joints (6 μm) were prepared, stained with toluidine-blue and examined with a light microscope (Guzman et al., 2003).
(§2) Measurements of peak hind limb grip force were conducted by recording the maximum compressive force exerted on the hind limb strain gauge setup, in a commercially available grip force measurement system (Columbus Instruments, Columbus, Ohio). […] Additional tests were performed 1, 2, 4, 7, 10, 13, 17, 21, 24, and 28 days following the injections.
A group of age matched naïve animals were added to each experiment and the data obtained from the different dose groups for the compound being tested were compared to the naïve group. The vehicle control group for each compound being tested was assigned 0% whereas the naïve group was assigned as being 100% (normal). The % effects for each dose group was then expressed as % return to normalcy compared to the naïve group (=[100÷% increase from vehicle for naive group]×% increase from vehicle for treatment group) (% increase from vehicle=[Treatment CFmax−Vehicle CFmax)/Vehicle CFmax]×100). All experiments evaluating drug effects in this model were conducted in a randomized blinded fashion.

naïve rats = assay: Hind limb grip force in naïve (non-MIA injected) rats
Experimental: as §2

rats = conditions: 28 days after unilateral i.a. injection, 3 mg; baseline 1090.17±52.85 g
Experimental: as §1, §2

[2] = Rattus norvegicus, po, 480 h; read-out: % effect (% return to normalcy of grip force)
[3] = Rattus norvegicus, po, 480 h; read-out: CI95% of ED50
[4] = Rattus norvegicus, po, 480 h; read-out: ED50, reversal of decreased grip force

Nc1nnc(-c2cccc(Cl)c2Cl)c(N)n1 [Lamotrigine, lamotrigine]
inhibition in vivo at 100 µmol/kg [1, 2]: 30 ± 3%

CC(=O)Nc1ccc(O)cc1 [acetaminophen]
inhibition in vivo at 300 µmol/kg [1, 2]: 23 ± 11%

Cc1ccc(-c2cc(C(F)(F)F)nn2-c2ccc(S(N)(=O)=O)cc2)cc1 [celecoxib]
% effect, chronic dosing ([1]; 10 μmol/kg p.o. b.i.d. for 12 days beginning 7 days after MIA): 33±3.0%
% effect, acutely dosed group of chronic study ([1]; 10 μmol/kg p.o., acute): 9±3%
% effect, chronic dosing ([1]; 30 μmol/kg p.o. b.i.d. for 12 days beginning 7 days after MIA): 67±3%
% effect, acutely dosed group of chronic study ([1]; 30 μmol/kg p.o., acute): 42±3%
% effect, acute positive control of chronic study ([1]; 100 μmol/kg p.o., acute): 88±4%
inhibition in vivo at 100 µmol/kg [1, 2]: 87 ± 6%
ED50 [1, 3]: 16 to 42 µmol/kg
ED50 [1, 4]: 27 µmol/kg

O=C(O)Cc1ccccc1Nc1c(Cl)cccc1Cl [diclofenac]
inhibition in vivo at 100 µmol/kg [1, 2]: 77 ± 5%
ED50 [1, 3]: 22 to 38 µmol/kg
ED50 [1, 4]: 29 µmol/kg

NCC1(CC(=O)O)CCCCC1 [gabapentin]
inhibition in vivo at 500 µmol/kg ([1]; Rattus norvegicus, po, 480 h, read-out: % effect (% return to normalcy of grip force)): 61 ± 8%
ED50 ([1]; Rattus norvegicus, po, 480 h, read-out: CI95% of ED50): 100 to 295 µmol/kg
ED50 ([1]; Rattus norvegicus, po, 480 h, read-out: ED50, reversal of decreased grip force): 159 µmol/kg

CC(C)Cc1ccc(C(C)C(=O)O)cc1 (stereo not shown) [ibuprofen]
inhibition in vivo at 300 µmol/kg [1, 2]: 29 ± 8%

COc1ccc2c(c1)c(CC(=O)O)c(C)n2C(=O)c1ccc(Cl)cc1 [indomethacin]
inhibition in vivo at 85 µmol/kg [1, 2]: 44 ± 6%

CN1CC[C@]23c4c5ccc(O)c4O[C@H]2[C@@H](O)C=C[C@H]3[C@H]1C5 [morphine]
inhibition in vivo at 8 µmol/kg ([1]; Rattus norvegicus, sc, 480 h, read-out: % effect (% return to normalcy of grip force)): 34 ± 3%
reduction of grip force vs untreated naïve rats (naïve rats; 8 μmol/kg (6 mg/kg) s.c.): 13±3%
reduction of grip force vs untreated naïve rats (naïve rats; 13 μmol/kg (10 mg/kg) s.c.): 52±3%

COc1cccc(C2(O)CCCCC2CN(C)C)c1 (stereo not shown) [tramadol]
inhibition in vivo at 100 µmol/kg ([1]; Rattus norvegicus, ip, 480 h, read-out: % effect (% return to normalcy of grip force)): 79 ± 5%
ED50 ([1]; Rattus norvegicus, ip, 480 h, read-out: CI95% of ED50): 32 to 54 µmol/kg
ED50 ([1]; Rattus norvegicus, ip, 480 h, read-out: ED50, reversal of decreased grip force): 40 µmol/kg

sodium monoiodoacetate [MIA]
hind limb grip force (GF) (rats): 420.96 ± 25.07 g
